Laboratory results: ChEMBL document CHEMBL1134253, “HIV Rev peptides conjugated with peptide nucleic acids and their efficient binding to RRE RNA” (Bioorg Med Chem Lett, 2001)

Columns and labels:
[1] = target: Rev responsive element (RRE) RNA; test: Dissociation constant of compound with Rev-responsive element (RRE) IIB RNA was determined by the competition assay; assay type: nucleic-acid assay
[2] = system: Rev responsive element (RRE) RNA; test: Ratio of the dissociation constant between Rev37-50 and the PNA-peptide; assay type: nucleic-acid assay

Kd [1] [nM]	Ratio [2]	Compound
5.7	15	C[C@H](NC(=O)CN(CCNC(=O)CN(CCNC(=O)CN(CCNC(=O)CN(CCNC(=O)CCC(=O)O)C(=O)Cn1cnc2c(=O)[nH]c(N)nc21)C(=O)Cn1ccc(N)nc1=O)C(=O)Cn1cnc2c(=O)[nH]c(N)nc21)C(=O)Cn1ccc(N)nc1=O)C(=O)N[C@@H](CCCNC(=N)N)C(=O)N[C@@H](CCCNC(=N)N)C(=O)N[C@@H](CC(N)=O)C(=O)N[C@@H](CCCNC(=N)N)C(=O)N[C@@H](CCCNC(=N)N)C(=O)N[C@@H](CCCNC(=N)N)C(=O)N[C@@H](CCCNC(=N)N)C(=O)N[C@@H](Cc1c[nH]c2ccccc12)C(=O)N[C@@H](CCCNC(=N)N)C(=O)N[C@@H](CCC(=O)O)C(=O)N[C@@H](CCCNC(=N)N)C(=O)N[C@@H](CCC(N)=O)C(=O)N[C@H](CCCNC(=N)N)C(N)=O
8.7	9.9	C[C@H](NC(=O)CN(CCNC(=O)CN(CCNC(=O)CN(CCNC(=O)CCC(=O)O)C(=O)Cn1cnc2c(=O)[nH]c(N)nc21)C(=O)Cn1cnc2c(=O)[nH]c(N)nc21)C(=O)Cn1ccc(N)nc1=O)C(=O)N[C@@H](CCCNC(=N)N)C(=O)N[C@@H](CCCNC(=N)N)C(=O)N[C@@H](CC(N)=O)C(=O)N[C@@H](CCCNC(=N)N)C(=O)N[C@@H](CCCNC(=N)N)C(=O)N[C@@H](CCCNC(=N)N)C(=O)N[C@@H](CCCNC(=N)N)C(=O)N[C@@H](Cc1c[nH]c2ccccc12)C(=O)N[C@@H](CCCNC(=N)N)C(=O)N[C@@H](CCC(=O)O)C(=O)N[C@@H](CCCNC(=N)N)C(=O)N[C@@H](CCC(N)=O)C(=O)N[C@H](CCCNC(=N)N)C(N)=O
15	5.7	C[C@H](NC(=O)CN(CCNC(=O)CN(CCNC(=O)CN(CCNC(=O)CCC(=O)O)C(=O)Cn1cnc2c(N)ncnc21)C(=O)Cn1cnc2c(=O)[nH]c(N)nc21)C(=O)Cn1ccc(N)nc1=O)C(=O)N[C@@H](CCCNC(=N)N)C(=O)N[C@@H](CCCNC(=N)N)C(=O)N[C@@H](CC(N)=O)C(=O)N[C@@H](CCCNC(=N)N)C(=O)N[C@@H](CCCNC(=N)N)C(=O)N[C@@H](CCCNC(=N)N)C(=O)N[C@@H](CCCNC(=N)N)C(=O)N[C@@H](Cc1c[nH]c2ccccc12)C(=O)N[C@@H](CCCNC(=N)N)C(=O)N[C@@H](CCC(=O)O)C(=O)N[C@@H](CCCNC(=N)N)C(=O)N[C@@H](CCC(N)=O)C(=O)N[C@H](CCCNC(=N)N)C(N)=O

The next lines start with the compound.

Compound	Kd [1] [nM]	Ratio [2]
C[C@H](NC(=O)CCC(=O)O)C(=O)N[C@@H](CCCNC(=N)N)C(=O)N[C@@H](CCCNC(=N)N)C(=O)N[C@@H](CC(N)=O)C(=O)N[C@@H](CCCNC(=N)N)C(=O)N[C@@H](CCCNC(=N)N)C(=O)N[C@@H](CCCNC(=N)N)C(=O)N[C@@H](CCCNC(=N)N)C(=O)N[C@@H](Cc1c[nH]c2ccccc12)C(=O)N[C@@H](CCCNC(=N)N)C(=O)N[C@@H](CCC(=O)O)C(=O)N[C@@H](CCCNC(=N)N)C(=O)N[C@@H](CCC(N)=O)C(=O)N[C@H](CCCNC(=N)N)C(N)=O	86	1
C[C@H](NC(=O)CN(CCNC(=O)CCC(=O)O)C(=O)Cn1cnc2c(=O)[nH]c(N)nc21)C(=O)N[C@@H](CCCNC(=N)N)C(=O)N[C@@H](CCCNC(=N)N)C(=O)N[C@@H](CC(N)=O)C(=O)N[C@@H](CCCNC(=N)N)C(=O)N[C@@H](CCCNC(=N)N)C(=O)N[C@@H](CCCNC(=N)N)C(=O)N[C@@H](CCCNC(=N)N)C(=O)N[C@@H](Cc1c[nH]c2ccccc12)C(=O)N[C@@H](CCCNC(=N)N)C(=O)N[C@@H](CCC(=O)O)C(=O)N[C@@H](CCCNC(=N)N)C(=O)N[C@@H](CCC(N)=O)C(=O)N[C@H](CCCNC(=N)N)C(N)=O	30	2.9
Cc1cn(CC(=O)N(CCNC(=O)CCC(=O)O)CC(=O)NCCN(CC(=O)N[C@@H](C)C(=O)N[C@@H](CCCNC(=N)N)C(=O)N[C@@H](CCCNC(=N)N)C(=O)N[C@@H](CC(N)=O)C(=O)N[C@@H](CCCNC(=N)N)C(=O)N[C@@H](CCCNC(=N)N)C(=O)N[C@@H](CCCNC(=N)N)C(=O)N[C@@H](CCCNC(=N)N)C(=O)N[C@@H](Cc2c[nH]c3ccccc23)C(=O)N[C@@H](CCCNC(=N)N)C(=O)N[C@@H](CCC(=O)O)C(=O)N[C@@H](CCCNC(=N)N)C(=O)N[C@@H](CCC(N)=O)C(=O)N[C@H](CCCNC(=N)N)C(N)=O)C(=O)Cn2ccc(N)nc2=O)c(=O)[nH]c1=O	27	3.2
